Molecular target: Complement factor D (Homo sapiens, UniProt P00746)
Experiment: Factor D Assay
Procedure: Human factor D (purified from human serum, Complement Technology, Inc.) at 80 nM final concentration is incubated with test compound at various concentrations for 5 minutes at room temperature in 50 mM Tris, 1M NaCl, pH 7.5. A synthetic substrate Z-L-Lys-SBz1 and DTNB (Ellman's reagent) are added to final concentrations of 100 μM each. The increase in color is recorded at OD405 nm in a microplate in kinetic mode over 30 minutes with 30 second time points in a […]. IC50 values are calculated by non-linear regression from the percentage of inhibition of complement factor D activity as a function of test compound concentration.

Chain of Complement factor D (P00746 whole entry): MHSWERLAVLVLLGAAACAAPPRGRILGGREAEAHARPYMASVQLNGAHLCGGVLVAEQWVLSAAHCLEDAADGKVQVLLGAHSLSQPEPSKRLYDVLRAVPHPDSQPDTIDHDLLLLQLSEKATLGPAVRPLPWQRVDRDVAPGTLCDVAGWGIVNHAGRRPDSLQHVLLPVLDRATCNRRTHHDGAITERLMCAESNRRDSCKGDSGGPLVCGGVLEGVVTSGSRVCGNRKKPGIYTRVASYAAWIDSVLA

For `CC(=O)c1cn(CC(=O)N2C[C@H](F)C[C@H]2C(=O)Nc2cccc(-c3ccccc3Cl)c2F)c2ccc(N(COC(=O)C(C)(C)C)c3cncnc3)cc12` [US9598446, Compound 15], the IC50 was “in the range around 5.5 µM”.
